The supplement of paper PMC11208160

Assay: recombinant barcode read abundance after kanamycin selection (control-corrected) (log10(CPM+1)); higher = more efficient recombination; sequences stand for … in AGTGCAGAGAAAATCGGCCAGTTTTCTCTGCCTGCAGTCCGCATGCCGT…AGATTTATGCAGCGGACTGCCTTTCTCCCAAAGTGATAAACCGGACAGTATCATGGACCGGTTTTCCCGGTAATCCGTATTTGCAAGGTTGGTTTCACT; site = the 11-nt target
Summary of the method: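 Recombination efficiency draws on barcodes counted at recombinant junctions in a pooled E. coli screen of targets paired with IS621 bridge RNA target-binding loops. The counts were converted to counts per million, averaged and corrected against the chloramphenicol/ampicillin LB agar control, then reported as log10(CPM+1). Selection plates held chloramphenicol/ampicillin/kanamycin with 0.1 mM IPTG, with two replicates per condition.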
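Also: IS621 recombinase and bridge RNA in Escherichia coli cells.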

Row | Sequence | recombinant barcode read abundance (log10)
1 | ACACAGACTTGGGTTCTAACCTGTTGCGC (site ACACAGACTGC) | 1.08
2 | AGAAACACTTGGGTTCTAACCTGTTGCCT (site AGGAACACTAG) | 0.0546
3 | TGGAGTCCTTGGGTTCTAACCTGTTGCCT (site TGGTGTCCTAG) | 0.0821
4 | CCTAAGACTTGGGTTCTAACCTGTTGCCT (site CCTAAGACTCG) | 0.0786
5 | CGAGATCCTTGGGTTCTAACCTGTTGCCT (site CGACATCCTAG) | 0.214
6 | TTCAAGCCTTGGGTTCTAACCTGTTGCCT (site TTCAAGTCTAG) | 0.0767
7 | GCTTAAACTTGGGTTCTAACCTGTTGCCT (site ATGGCCTCTTA) | 0.0724
8 | CGAACTACTTGGGTTCTAACCTGTTGCCT (site CGAACTACTAT) | 0.316
9 | TGCCTCTCTTGGGTTCTAACCTGTTGCCT (site TGCCTCTCTAG) | 0.172
10 | GTACAATCTTGGGTTCTAACCTGTTGCCT (site GTACAATCTAG) | 1.43
11 | GACATACCTTGGGTTCTAACCTGTTGCCT (site GACCTACCTAG) | 0.273
12 | TCCGCTACTTGGGTTCTAACCTGTTGCCT (site TCCGCTACTAG) | 0.0438
13 | GTAAACTCTTGGGTTCTAACCTGTTGCCT (site GTCAACTCTAG) | 0.0684
14 | GAGGGCCCTTGGGTTCTAACCTGTTGCCT (site TAGGGCCCTAG) | 1.04
15 | TCTCGTTCTTGGGTTCTAACCTGTTGCTA (site TCTCGTTCTTA) | 0.102
16 | TAGGCTCCTTGGGTTCTAACCTGTTGCAG (site TAGGCTCCTCT) | 0.429
17 | GGACGGGCTTGGGTTCTAACCTGTTGCAG (site GGACGGGCTCT) | 2.48
18 | ATAAATCCTTGGGTTCTAACCTGTTGCCT (site GTAAATCCTAG) | 0.0609
19 | CTATCCTCTTGGGTTCTAACCTGTTGCAT (site CTATCCTCTAT) | 1.06
20 | AAAAGCCCTTGGGTTCTAACCTGTTGCCT (site ATAAGCCCTAG) | 0.357
21 | AGAAACACTTGGGTTCTAACCTGTTGCCT (site AGAAACACTAG) | 1.34
22 | ATGTCCTCTTGGGTTCTAACCTGTTGCCT (site ATGGCCTCTAG) | 0.276

Row | Sequence | recombinant barcode read abundance (log10)
23 | CACATATCTTGGGTTCTAACCTGTTGCAT (site CACATATCTAT) | 1.49
24 | GCGCATGCTTGGGTTCTAACCTGTTGCCT (site GCGCATGCTAG) | 0.788
25 | TGACGTCCTTGGGTTCTAACCTGTTGCCT (site TGACGTCCTAC) | 0.315
26 | AACCACTCTTGGGTTCTAACCTGTTGCCT (site GACCACTCTAG) | 0.266
27 | CTAAGAACTTGGGTTCTAACCTGTTGCAT (site CTAAGAACTAA) | 0.15
28 | GCCCGGGCTTGGGTTCTAACCTGTTGCCG (site GCCAGGGCTCG) | 0.144
29 | AACTTATCTTGGGTTCTAACCTGTTGCCT (site AACTAATCTAG) | 1.02
30 | CCTCAATCTTGGGTTCTAACCTGTTGCTT (site CCTCAATCTAA) | 0.224
31 | CCGTCTACTTGGGTTCTAACCTGTTGCTA (site CCGTCTACTTA) | 0.259
32 | TGTGACACTTGGGTTCTAACCTGTTGCAA (site AACAGGCCTAG) | 0.121
33 | TCCAGCTCTTGGGTTCTAACCTGTTGCCT (site ACCAGATCTAG) | 0.0273
34 | TCGAAGCCTTGGGTTCTAACCTGTTGCCT (site TCGAACCCTAG) | 0.207
35 | CCAGTCACTTGGGTTCTAACCTGTTGCCT (site CCAGTGACTAG) | 0.176
36 | AATGCTCCTTGGGTTCTAACCTGTTGCCT (site AATGCTCCTAA) | 0.0483
37 | GCCCCGCCTTGGGTTCTAACCTGTTGCAG (site GCCCCGCCTCT) | 1.02
38 | CTAAGAGCTTGGGTTCTAACCTGTTGCCA (site CTAAGTGCTTG) | 0.116
39 | CTTCGCCCTTGGGTTCTAACCTGTTGCTT (site CTTCGCCCTAA) | 0.109
40 | CGTCTACCTTGGGTTCTAACCTGTTGCCT (site CGTCTACCTAG) | 0.333
41 | GCTAACACTTGGGTTCTAACCTGTTGCCT (site TCTAACACTAG) | 0.075
42 | ACATAGACTTGGGTTCTAACCTGTTGCGC (site ACATAGACTGC) | 1.35
43 | TAGTCTGCTTGGGTTCTAACCTGTTGCCT (site TAGTCTGCTAG) | 0.0515
44 | AACTAGTCTTGGGTTCTAACCTGTTGCTA (site AACTAGTCTTA) | 1.27

Row | Sequence | recombinant barcode read abundance (log10)
45 | CTGATCCCTTGGGTTCTAACCTGTTGCCT (site CTGATCCCTAG) | 1.22
46 | TTCATACCTTGGGTTCTAACCTGTTGCTT (site GTCTTACCTAA) | 0.0129
47 | GTCAAACCTTGGGTTCTAACCTGTTGCTT (site GTCAAACCTAA) | 0.46
48 | TCTTAGACTTGGGTTCTAACCTGTTGCCG (site TCTTAGACTCG) | 0.232
49 | GTAAGTGCTTGGGTTCTAACCTGTTGCCT (site GTAAGTGCTAG) | 1.28
50 | GATACGGCTTGGGTTCTAACCTGTTGCCT (site GATACGACTAG) | 0.169
51 | ACCTTACCTTGGGTTCTAACCTGTTGCGG (site ACCTTACCTCC) | 0.617
52 | TACCTAACTTGGGTTCTAACCTGTTGCTT (site TACCTAACTAA) | 0.0655
53 | CTATGTGCTTGGGTTCTAACCTGTTGCCT (site CTATGTGCTAG) | 1.62
54 | GTTACGTCTTGGGTTCTAACCTGTTGCTT (site AGTACGTCTAA) | 0.115
55 | GTAAGTACTTGGGTTCTAACCTGTTGCTT (site GTAAGGACTAA) | 0.159
56 | CTGAGTCCTTGGGTTCTAACCTGTTGCCA (site CTGAGTCCTTG) | 0.424
57 | CAGATGACTTGGGTTCTAACCTGTTGCCT (site CAGATGACTAG) | 1.52
58 | CCTTGCCCTTGGGTTCTAACCTGTTGCCT (site CATTGCCCTAG) | 0.0176
59 | CGCTTTACTTGGGTTCTAACCTGTTGCCG (site TAGACATCTAC) | 0.0706
60 | ACCGACCCTTGGGTTCTAACCTGTTGCCG (site ACCGACCCTCG) | 1.47
61 | AGGCAGTCTTGGGTTCTAACCTGTTGCCT (site AGGCCGTCTAC) | 0.0845
62 | CTACTATCTTGGGTTCTAACCTGTTGCGC (site CTACTATCTGC) | 0.937
63 | TCACAGCCTTGGGTTCTAACCTGTTGCTG (site TCAGAGCCTCA) | 0.176
64 | TATACACCTTGGGTTCTAACCTGTTGCGT (site TATACACCTAC) | 1.48
65 | CACGCTCCTTGGGTTCTAACCTGTTGCGT (site CACGCTCCTAC) | 0.656
66 | CCTACATCTTGGGTTCTAACCTGTTGCAT (site CCTACATCTAT) | 0.252
